Legend:
[1] = Drug metabolism in human liver microsomes assessed as R-(+)- N-((1-hydroxy-1,2,3,5,6,7-hexahydro-s-indacen-4-yl)carbamoyl)-4-(2-hydroxypropan-2-yl)furan-2-sulfonamide formation at 5 uM preincubated for 20 mins followed by NADPH addition measured after 120 mins by QTOF-ESI-MS/MS analysis; type: ADME; conditions: 2 h
[2] = Drug metabolism in human liver microsomes assessed as N-((1-hydroxy-1,2,3,5,6,7-hexahydro-s-indacen-4-yl)carbamoyl)-4-(2-hydroxypropan-2-yl)furan-2-sulfonamide formation at 5 uM preincubated for 20 mins followed by NADPH addition measured after 120 mins by HPLC/ESI-SRM-MS/MS analysis; type: ADME; conditions: 2 h
[3] = Drug metabolism in human liver microsomes assessed as R-(+)- N-((1-hydroxy-1,2,3,5,6,7-hexahydro-s-indacen-4-yl)carbamoyl)-4-(2-hydroxypropan-2-yl)furan-2-sulfonamide formation at 5 uM preincubated for 20 mins followed by NADPH addition measured after 120 mins by HPLC/ESI-SRM-MS/MS analysis; type: ADME; conditions: 2 h
[4] = Cytotoxicity against human HEK293 cells assessed as decrease in cell viability after 20 hrs by resazurin based fluorescence assay; type: toxicity
[5] = Cytotoxicity against human HepG2 cells assessed as decrease in cell viability after 20 hrs by resazurin based fluorescence assay; type: toxicity
[6] = biological target: NACHT, LRR and PYD domains-containing protein 3 (Homo sapiens, UniProt Q96P20); experiment: Inhibition of NLRP3 inflammasome in LPS-stimulated human monocyte derived macrophages assessed as reduction in NLRP3 inflammasome-induced IL-1beta production preincubated for 30 mins followed by NLRP3 stimulation with ATP for 1 hr by ELISA
Chain of NACHT, LRR and PYD domains-containing protein 3 (Q96P20 whole entry, the tested form may be a part): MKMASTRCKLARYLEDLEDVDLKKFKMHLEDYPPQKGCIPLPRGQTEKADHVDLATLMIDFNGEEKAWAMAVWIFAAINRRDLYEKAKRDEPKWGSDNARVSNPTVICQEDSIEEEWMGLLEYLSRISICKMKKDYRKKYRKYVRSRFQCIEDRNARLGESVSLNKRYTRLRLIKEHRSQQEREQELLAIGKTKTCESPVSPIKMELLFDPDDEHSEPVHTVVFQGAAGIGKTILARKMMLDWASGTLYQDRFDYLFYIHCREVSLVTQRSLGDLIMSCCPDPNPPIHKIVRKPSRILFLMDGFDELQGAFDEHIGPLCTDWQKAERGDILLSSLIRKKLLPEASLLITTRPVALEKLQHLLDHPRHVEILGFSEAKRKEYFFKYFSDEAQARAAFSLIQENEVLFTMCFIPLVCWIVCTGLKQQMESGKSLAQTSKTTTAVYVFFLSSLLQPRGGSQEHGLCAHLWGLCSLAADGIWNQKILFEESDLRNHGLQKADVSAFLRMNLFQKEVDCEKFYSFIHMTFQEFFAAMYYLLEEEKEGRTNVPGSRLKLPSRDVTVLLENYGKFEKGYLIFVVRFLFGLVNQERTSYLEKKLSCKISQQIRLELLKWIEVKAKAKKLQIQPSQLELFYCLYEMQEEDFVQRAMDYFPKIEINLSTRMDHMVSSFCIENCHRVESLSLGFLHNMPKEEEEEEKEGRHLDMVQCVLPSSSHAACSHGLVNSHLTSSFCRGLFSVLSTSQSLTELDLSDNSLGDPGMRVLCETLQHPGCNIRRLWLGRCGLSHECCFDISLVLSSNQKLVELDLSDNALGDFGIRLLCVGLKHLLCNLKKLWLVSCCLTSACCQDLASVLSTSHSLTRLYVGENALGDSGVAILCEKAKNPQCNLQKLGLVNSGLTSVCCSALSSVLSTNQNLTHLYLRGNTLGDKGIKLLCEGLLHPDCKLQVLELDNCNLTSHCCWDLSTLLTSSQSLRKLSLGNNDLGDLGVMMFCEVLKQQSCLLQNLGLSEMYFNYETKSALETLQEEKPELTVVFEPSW

[7] = Drug level in human liver microsomes treated with 5 uM MCC950 preincubated for 20 mins followed by NADPH addition measured after 120 mins by QTOF-ESI-MS/MS analysis; type: ADME; conditions: 2 h
[8] = Drug level in human liver microsomes treated with 5 uM MCC950 preincubated for 20 mins followed by NADPH addition measured after 120 mins by HPLC/ESI-SRM-MS/MS analysis; type: ADME; conditions: 2 h

| Structure (SMILES) | Drug metabolism [1] | Drug metabolism [2] | Drug metabolism [3] | CC50 at 20 h [4] | CC50 at 20 h [5] | IC50 [6] | Drug metabolism [7] | Drug metabolism [8] |
| --- | --- | --- | --- | --- | --- | --- | --- | --- |
| CC(C)(O)c1coc(S(=O)(=O)NC(=O)Nc2c3c(cc4c2CCC4)CCC3)c1 | Metabolite_Detected | Metabolite_Detected | Metabolite_Detected | > 62.5 µM | > 62.5 µM | – | – | – |
| CC(C)(O)c1coc(S(=O)(=O)NC(=O)Nc2c3c(cc4c2CC[C@@H]4O)CCC3)c1 | – | – | – | – | – | 6.35 µM | – | – |
| CC(C)(O)c1coc(S(=O)(=O)NC(=O)Nc2c3c(cc4c2CC(O)C4)CCC3)c1 (centres undefined) | – | – | – | > 62.5 µM | > 62.5 µM | 1.83 µM | – | – |
| CC(C)(O)c1coc(S(=O)(=O)NC(=O)Nc2c3c(cc4c2CC[C@H]4O)CCC3)c1 | – | – | – | – | – | 1.24 µM | Metabolite_Detected | Metabolite_Detected |
| CC(C)(O)c1coc(S(=O)(=O)NC(=O)Nc2c3c(cc4c2C(O)CC4)CCC3)c1 (racemic) | – | – | – | > 62.5 µM | > 62.5 µM | 0.232 µM | – | – |
| CC(C)(O)c1coc(S(=O)(=O)NC(=O)Nc2c3c(cc4c2CCC4O)CCC3)c1 (racemic) | – | – | – | > 62.5 µM | > 62.5 µM | 1.97 µM | – | Metabolite_Detected |

From ChEMBL document CHEMBL3862040, “Identification, Synthesis, and Biological Evaluation of the Major Human Metabolite of NLRP3 Inflammasome Inhibitor MCC950” (ACS Med Chem Lett, 2016)
